Columns and labels:
[1] = Drug release of impregnated multifilament in 0.01M PBS; format: physicochemical; conditions: release from multifilament impregnated with 1000 ppm solution; 0.01M PBS pH 7.4, 37, examined 0-100 hours
Method: In order to examine the […] drug release of each of the multifilament samples impregnated with CAPE and GSE for 440 min and pinocembrin for 720 min in Example 3, the following test was performed. As a solvent for use in this release test, 0.01M PBS (by phosphate buffer calculator, monobasic monohydrate: 1.1832 g, and dibasic ACS reagent: 8.1572 g) was prepared and adjusted to a pH of 7.4. After standard curves of FIGS. 5A, 5B and 5C for the grapefruit seed extracts and CAPE and pinocembrin (the active components of propolis) were plotted, and then tests for the materials were performed at the respective concentrations. The standard curves for the functional materials were obtained by measuring the absorbance using JASCO V-550 UV-Vis Spectrometer (Wavelength Range: 200-900 nm; Bandwidth Selectable: 0.5 nm; Scanning Speed: 400 nm/min; Data Pitch: 1 nm). The standard curve equations shown in FIGS. 5A (CAPE), 5B (Pinocembrin) and 5C (grapefruit seed extract) are as follows: y=0.126x+0.022 CAPE (1) y=0.051x+0.021 Pinocembrin (2) y=0.002x−0.035 Grapefruit seed extract (3) wherein x is the concentration of each functional material, and y is the absorbance of each functional material. […]

[2] = Degradation behavior of PGLA multifilament in PBS solution; format: physicochemical
From the text: FIG. 9 is a photograph showing the results of observing the degradation behavior of 0.1 g of the PGLA multifilament in PBS solution (pH7.4; similar to the human body) for 0 day, 10 days and 2 months. […] Also, it can be seen that the grapefruit seed extract and CAPE or pinocembrin which is the active component of propolis have no effect on the degradation of the multifilament.

[3] = tested on: Escherichia coli DH 5α (ATCC 25922); experiment: Antibacterial activity of impregnated multifilament, agar diffusion; format: cell-based; conditions: contained in multifilament, treatment concentration 1000 ppm, 37.1° C., 24 hours, FIG. 8
Method: (§1) The antibacterial activity of the multifilament of Example containing the grapefruit seed extract and the active components (CAPE and pinocembrin) of propolis was tested. In the test, the cells of bacterial strains were grown in LB medium (peptone 10 g) by agar diffusion, and the growth of the bacterial strains was examined by UV-Vis spectroscopy. As the test strains, Staphylococcus aureus (ATCC 6538) and Escherichia coli DH 5α (ATCC 25922) were used. The bacterial cells were cultured at 37.1° C. for 24 hours, and then changes in the bacterial strains were measured. FIG. 8 is a set of photographs showing a comparison of antibacterial activity between a multifilament containing the grapefruit seed extract and a multifilament containing the active component (CAPE) of propolis. […] In FIG. 8, 1: a control group, 2 to 6: samples impregnated with a solution of CAPE and the grapefruit seed extract; a: a sample treated with Staphylococcus aureus; b: a sample treated with Escherichia coli DH 5α. In the photograph of FIG. 8, the treatment concentration is 1000 ppm. […] Although a lower concentration of the antibacterial material is contained in the multifilament, it is considered that the test should be carried out at 1000 ppm, because the concentration of the antibacterial material in the multifilament will be excessively low when the test is carried out at a lower concentration. […]

[4] = tested on: Staphylococcus aureus (ATCC 6538); experiment: as above; format: cell-based; conditions: contained in multifilament, treatment concentration 1000 ppm, 37.1° C., 24 hours, FIG. 8
Method: as §1

Compound: O=C1CC(c2ccccc2)Oc2cc(O)cc(O)c21 (stereo not shown) [pinocembrin]
- time at which drug release behavior was completed [1]: ≤ 60 h
- effect on the degradation of the multifilament ([2]; PBS solution pH7.4, 0 day, 10 days and 2 months, FIG. 9): no effect

Compound: poly(glycolide-co-L-lactide) [PGLA multifilament]
- degradation of the multifilament ([2]; pH 7.4): significantly rapid

Compound: O=C(/C=C/c1ccc(O)c(O)c1)OCCc1ccccc1 [CAPE, caffeic acid phenethyl ester]
- time at which drug release behavior was completed [1]: ≤ 64 h
- antibacterial activity [3]: showed antibacterial activity
- antibacterial activity [4]: showed antibacterial activity
- effect on the degradation of the multifilament ([2]; pH 7.4): no effect

From US9044526B2, “Medical product containing active component of propolis or grapefruit seed extract and manufacturing method thereof” (Korea Institute of Ceramic Engineering and Technology, priority 2011, dated 2015)
